# Species on record: Rattus norvegicus
# Assay: DrugMatrix - Regimen: Daily Repeat
# Format: toxicity, organism-based, Sprague-Dawley
# Design: regimen Daily Repeat, gender Male, age 6-8 weeks
# Conditions: in vivo, po, 1200 mg/kg, route oral GAVAGE, dose level High, vehicle 100 % WATER; for ALANINE AMINOTRANSFERASE / ALBUMIN / ALKALINE PHOSPHATASE / ASPARTATE AMINOTRANSFERASE / BLOOD UREA NITROGEN / CARBON DIOXIDE / CHLORIDE / CHOLESTEROL / CREATINE PHOSPHOKINASE / CREATININE / GLUCOSE / LACTATE DEHYDROGENASE / LIPASE / PHOSPHORUS / POTASSIUM / SODIUM / TOTAL BILIRUBIN / TOTAL PROTEIN / URIC ACID: tissue Plasma
# [1] = 120 h, tissue Blood, time 5 day
structure (smiles),measurement,setting,value
COCCc1ccc(OCC(O)CNC(C)C)cc1 (configuration not stated) [METOPROLOL],ABSOLUTE SEGMENTED NEUTROPHIL,"72 h, tissue Blood, time 3 day",909.67 CELLS/uL
same,BASOPHIL,"72 h, tissue Blood, time 3 day",0%
same,EOSINOPHIL,"72 h, tissue Blood, time 3 day",2.33%
same,ERYTHROCYTE COUNT,"72 h, tissue Blood, time 3 day",5.22 x10E6/uL
same,HEMATOCRIT,"72 h, tissue Blood, time 3 day",33.73%
same,HEMOGLOBIN,"72 h, tissue Blood, time 3 day",12.8 G/DL
same,LEUKOCYTE COUNT,"72 h, tissue Blood, time 3 day",12.47 x10E3/uL
same,LYMPHOCYTE,"72 h, tissue Blood, time 3 day",90.33%
same,MEAN CORPUSCULAR HEMOGLOBIN,"72 h, tissue Blood, time 3 day",24.57 pg
same,MEAN CORPUSCULAR HEMOGLOBIN CONCENTRATION,"72 h, tissue Blood, time 3 day",37.93 G/DL
same,MEAN CORPUSCULAR VOLUME,"72 h, tissue Blood, time 3 day",64.7 fL
same,MONOCYTE,"72 h, tissue Blood, time 3 day",0%
same,NEUTROPHIL,"72 h, tissue Blood, time 3 day",7.33%
same,NUCLEATED RED BLOOD CELLS,"72 h, tissue Blood, time 3 day",0 /100WBC
same,PLATELET COUNT,"72 h, tissue Blood, time 3 day",1290.67 x10E3/uL
same,ALANINE AMINOTRANSFERASE,"72 h, time 3 day",53.67 u/L
same,ALBUMIN,"72 h, time 3 day",3.87 G/DL
same,ALKALINE PHOSPHATASE,"72 h, time 3 day",394 u/L
same,ASPARTATE AMINOTRANSFERASE,"72 h, time 3 day",71 u/L
same,BLOOD UREA NITROGEN,"72 h, time 3 day",17.33 mg/dL
same,CARBON DIOXIDE,"72 h, time 3 day",22.33 mmol/L
same,CHLORIDE,"72 h, time 3 day",107.33 MEQ/L
same,CHOLESTEROL,"72 h, time 3 day",61.67 mg/dL
same,CREATINE PHOSPHOKINASE,"72 h, time 3 day",205.67 u/L
same,CREATININE,"72 h, time 3 day",0.14 mg/dL
same,GLUCOSE,"72 h, time 3 day",163.67 mg/dL
same,LACTATE DEHYDROGENASE,"72 h, time 3 day",229 u/L
same,LIPASE,"72 h, time 3 day",8 u/L
same,PHOSPHORUS,"72 h, time 3 day",13.37 mg/dL
same,POTASSIUM,"72 h, time 3 day",7.13 MEQ/L
same,SODIUM,"72 h, time 3 day",143.6 MEQ/L
same,TOTAL BILIRUBIN,"72 h, time 3 day",0.2 mg/dL
same,TOTAL PROTEIN,"72 h, time 3 day",5.57 G/DL
same,URIC ACID,"72 h, time 3 day",1.77 mg/dL
same,ABSOLUTE BASOPHIL,[1],0 CELLS/uL
same,ABSOLUTE EOSINOPHIL,[1],118 CELLS/uL
same,ABSOLUTE LYMPHOCYTE,[1],10653.33 CELLS/uL
same,ABSOLUTE MONOCYTE,[1],40.33 CELLS/uL
same,ABSOLUTE SEGMENTED NEUTROPHIL,[1],1388.33 CELLS/uL
same,BASOPHIL,[1],0%
same,EOSINOPHIL,[1],1%
same,ERYTHROCYTE COUNT,[1],5.92 x10E6/uL
same,HEMATOCRIT,[1],35.9%
same,HEMOGLOBIN,[1],13.47 G/DL
same,LEUKOCYTE COUNT,[1],12.2 x10E3/uL
same,LYMPHOCYTE,[1],87.33%
same,MEAN CORPUSCULAR HEMOGLOBIN,[1],22.77 pg
same,MEAN CORPUSCULAR HEMOGLOBIN CONCENTRATION,[1],37.5 G/DL
same,MEAN CORPUSCULAR VOLUME,[1],60.63 fL
same,MONOCYTE,[1],0.33%
same,NEUTROPHIL,[1],11.33%
same,NUCLEATED RED BLOOD CELLS,[1],0 /100WBC
same,PLATELET COUNT,[1],1269 x10E3/uL
same,ALANINE AMINOTRANSFERASE,"120 h, time 5 day",41.67 u/L
same,ALBUMIN,"120 h, time 5 day",4 G/DL
same,ALKALINE PHOSPHATASE,"120 h, time 5 day",311.67 u/L
same,ASPARTATE AMINOTRANSFERASE,"120 h, time 5 day",79 u/L
same,BLOOD UREA NITROGEN,"120 h, time 5 day",16 mg/dL
same,CARBON DIOXIDE,"120 h, time 5 day",25 mmol/L
same,CHLORIDE,"120 h, time 5 day",102.33 MEQ/L
same,CHOLESTEROL,"120 h, time 5 day",50.67 mg/dL
same,CREATINE PHOSPHOKINASE,"120 h, time 5 day",364.33 u/L
same,CREATININE,"120 h, time 5 day",0.21 mg/dL
same,GLUCOSE,"120 h, time 5 day",161.33 mg/dL
same,LACTATE DEHYDROGENASE,"120 h, time 5 day",430 u/L
same,LIPASE,"120 h, time 5 day",8 u/L
same,PHOSPHORUS,"120 h, time 5 day",11.67 mg/dL
same,POTASSIUM,"120 h, time 5 day",6.24 MEQ/L
same,SODIUM,"120 h, time 5 day",141.53 MEQ/L
same,TOTAL BILIRUBIN,"120 h, time 5 day",0.2 mg/dL
same,TOTAL PROTEIN,"120 h, time 5 day",5.6 G/DL
same,URIC ACID,"120 h, time 5 day",1.73 mg/dL

# From ChEMBL document CHEMBL3885881, “DrugMatrix”
